“And” between values parts separate entries of the source, which are not always exact repeats. Equal values may be shown once. Read-outs that look alike come from different tables or passages of the source.
Target: T1, γ-secretase (Homo sapiens, UniProt P49768)
T1 construct: γ-Secretase is composed of four subunits: Aph1, Pen2, glycosylated nicastrin, and endo-proteolyzed presenilin as the catalytic core; endogenous in cells; host or cells: HeLa S3 (ATCC CCL-2.2)
Assay: Aβ 1–40 secretion from HeLa cells in the presence of DAPT (sandwich ELISA), dose-response fits
Format: cell-based
Details: for EC50: read-out: Activation EC50; for IC50: read-out: Inhibition IC50; for Maximal Activity that can be achieved by transfection (Aβ 1-40 secreted): HeLa transfected with cDNAwtC99
Text: HeLa cells have been transfected using Lipofectamine LTX™ reagent following the manufacturer instructions. The transfection protocol and concentration of pSG5-cDNAwtC99 plasmid have been optimized to achieve desired assay sensitivity, a gradual increase in the substrate expression level, and a smooth transition from biphasic to the standard dose-response curves (Figs. 2–3). Initially concentration of pSG5-cDNAwtC99 plasmid have been optimized by western blots using anti-flag αM2 monoclonal antibody as described in our previous study. The cells were transfected in 24-well plates. The day before transfection the cells were trypsinized and counted. About 0.85×10^5 cells were seeded per well in 0.5 ml of complete growth medium to achieve about 75% confluent cultures on the day of transfection. Before the transfection old medium was removed and replaced with fresh 0.5 ml of complete growth medium. For transfection 5X DNA concentration was diluted in 500 µl of Opti-MEM®I Reduced Serum Media and mixed with 0.7 µl of Lipofectamine LTX™ Reagent. The solution was gently mixed and incubated for 30 minutes at room temperature to form DNA- Lipofectamine LTX™ Reagent complexes. Following the 30 min incubation, 100 µl of the DNA- Lipofectamine LTX™ Reagent complexes was added directly to each well containing cells and mixed gently by rocking the plate back and forth. The cells were incubated at 37°C in a CO2 incubator for 18 hours.
Fresh medium was added 18 hours after the transfection (0.5 ml per well), to prepare the cells for incubation with DAPT [18], [51]. Different concentrations of DAPT were prepared in DMSO, and added to the cells so that the final DMSO concentration in the culture was 0.1% (v/v). DMSO vehicle represents 0 nM DAPT. The cells were incubated with DAPT at given concentrations for 15 hours.
The assay linear response is in the range from 6–125 pM of Aβ 1–40. The assays were performed by closely following the manufacturer instructions. […] Each well was filled with 50 µl of the antibody conjugate solution and 50 µl of sample. The Aβ 1–40 standards were supplied by the manufacturer and prepared in parallel with other samples. All of the prepared wells were wrapped in aluminum foil and incubated overnight at 4°C with gentle mixing. The next day each well was washed five times with 300 µl of wash solution. After each […] wash, the wash solution was poured out and the wells were dried by tapping the plates on an absorbing paper. Washed wells were filled with 100 µl of the enzyme conjugate solution, covered, and incubated for 30 min at room temperature with shaking. The washing procedure was repeated once again to remove excess of the enzyme-conjugate. Next 100 µl of the substrate solution was added in each well in dark, and kept for 30 minutes covered at room temperature. The reaction was quenched by adding 50 µl of stop solution to each well, and within 15 min the signal intensity was read by measuring absorption at 450 nm.
All experimental results were analyzed using MicroCal Origin 7.0 program, nonlinear regressions, and equations that represent specific mechanism. All results are reported as the best fit value ± standard error with two-sigma confidence intervals shown in square brackets (i.e. x±y [p, q]). Briefly, the standard error indicates random errors (i.e. precision) for each method, while the two sigma confidence intervals indicate the ability of given experimental setup to provide information about specific best-fit parameter. The random error for presented experiments is low, as indicated by a low scatter from the best fit values. The sharp confidence intervals can be obtained by taking a large number of independent data points that cover all segments that define the measured functions. […]

[1] = Aβ 1-40 secreted, untransfected HeLa cells, eqn. 1, six free fit parameters
[2] = Aβ 1-40 secretion, untransfected HeLa cells, eqn. 1, six free fit parameters
[3] = HeLa, 0 ng/mL pSG5-cDNAwtC99, eqn. 1
[4] = HeLa, 15 ng/mL pSG5-cDNAwtC99, eqn. 1
[5] = HeLa, 25 ng/mL pSG5-cDNAwtC99, eqn. 1
[6] = HeLa, 61 ng/mL pSG5-cDNAwtC99, eqn. 1
[7] = HeLa, 92 ng/mL pSG5-cDNAwtC99, eqn. 1

T1 sequence (Q9NZ42 whole entry, other chains not shown): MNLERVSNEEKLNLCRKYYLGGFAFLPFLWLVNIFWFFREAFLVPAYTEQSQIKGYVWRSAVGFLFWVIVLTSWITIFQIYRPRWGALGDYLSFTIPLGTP
T1 sequence (Q92542 34-709, other chains not shown, further chain): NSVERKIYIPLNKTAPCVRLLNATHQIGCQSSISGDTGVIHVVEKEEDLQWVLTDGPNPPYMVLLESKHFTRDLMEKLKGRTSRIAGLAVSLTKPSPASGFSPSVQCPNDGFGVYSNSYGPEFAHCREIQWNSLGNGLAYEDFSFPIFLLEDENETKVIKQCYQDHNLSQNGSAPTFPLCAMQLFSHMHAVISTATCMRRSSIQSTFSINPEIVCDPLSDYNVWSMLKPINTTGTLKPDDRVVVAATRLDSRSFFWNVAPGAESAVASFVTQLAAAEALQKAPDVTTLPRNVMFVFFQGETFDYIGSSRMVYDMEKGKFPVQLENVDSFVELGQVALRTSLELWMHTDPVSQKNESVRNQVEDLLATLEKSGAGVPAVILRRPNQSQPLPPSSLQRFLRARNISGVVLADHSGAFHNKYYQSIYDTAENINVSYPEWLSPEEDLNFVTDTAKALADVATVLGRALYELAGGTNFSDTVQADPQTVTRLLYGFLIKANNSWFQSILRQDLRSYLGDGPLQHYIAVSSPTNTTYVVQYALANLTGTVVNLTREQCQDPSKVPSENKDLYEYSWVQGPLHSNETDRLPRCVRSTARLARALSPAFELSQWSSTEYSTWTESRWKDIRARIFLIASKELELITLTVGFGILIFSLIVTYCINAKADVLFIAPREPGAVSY
T1 sequence (Q96BI3 whole entry, other chains not shown, further chain): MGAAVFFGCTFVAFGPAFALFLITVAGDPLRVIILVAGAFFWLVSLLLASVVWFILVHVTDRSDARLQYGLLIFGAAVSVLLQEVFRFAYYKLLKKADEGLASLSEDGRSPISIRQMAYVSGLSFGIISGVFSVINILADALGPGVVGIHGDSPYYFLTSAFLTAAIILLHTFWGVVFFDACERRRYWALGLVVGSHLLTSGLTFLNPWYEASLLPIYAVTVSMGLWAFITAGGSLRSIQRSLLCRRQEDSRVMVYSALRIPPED

Compound: C[C@H](NC(=O)Cc1cc(F)cc(F)c1)C(=O)N[C@H](C(=O)OC(C)(C)C)c1ccccc1 [DAPT, N-[N-(3,5-difluorophenacetyl)-L-alanyl]-S-phenylglycine t-butyl ester]
- Endogenous activity as percentage of maximal activity achieved by transfection (33 nM DAPT): 40% and 39.7%
- cDNAwtC99 required to reach maximal activity (33 nM DAPT): 192 ng/mL and 191.0 ng/mL
- Endogenous activity as percentage of maximal activity achieved by transfection (100 nM DAPT): 72% and 72.5%
- cDNAwtC99 required to reach maximal activity (100 nM DAPT): 92.7 ng/mL
- Endogenous activity as percentage of maximal activity achieved by transfection (333 nM DAPT): 92.1%
- cDNAwtC99 required to reach maximal activity (333 nM DAPT): 59.8 ng/mL
- Endogenous activity as percentage of maximal activity achieved by transfection (500 nM DAPT): 89.3%
- cDNAwtC99 required to reach maximal activity (500 nM DAPT): 39.2 ng/mL
- Endogenous activity as percentage of maximal activity achieved by transfection (1000 nM DAPT): 96.2%
- cDNAwtC99 required to reach maximal activity (1000 nM DAPT): 14.0 ng/mL
- Initial Activity, IA (Aβ 1-40 secreted, untransfected HeLa cells, endogenous substrate, activity at inhibitor concentration zero, eqn. 1, six free fit parameters): 31 ± 4 pM per 10^6 cells
- Maximal Activity (MA), calculated activation plateau [1]: 196 pM per 10^6 cells and 196 ± 80 pM per 10^6 cells
- Maximal Inhibition, MI [1]: 0.5 ± -3.4 pM per 10^6 cells
- EC50 [2]: 72 ± 20 nM
- IC50 [2]: 472 ± 95 nM
- Maximal Activity that can be achieved by transfection (Aβ 1-40 secreted) (33 nM DAPT): 204.5 pM per 10^6 cells
- Maximal Activity that can be achieved by transfection (Aβ 1-40 secreted) (100 nM DAPT): 182 pM per 10^6 cells and 182.0 pM per 10^6 cells
- Maximal Activity that can be achieved by transfection (Aβ 1-40 secreted) (333 nM DAPT): 140.0 pM per 10^6 cells
- Maximal Activity that can be achieved by transfection (Aβ 1-40 secreted) (500 nM DAPT): 125.0 pM per 10^6 cells
- Maximal Activity that can be achieved by transfection (Aβ 1-40 secreted) (1000 nM DAPT): 44.7 pM per 10^6 cells
- Activation Hill coef. [3]: 1.04 ± 0.2
- Inhibition Hill's coef [3]: 2 ± 0.3
- Maximal Activity, MA [3]: 217 ± 110 pM per 10^6 cells
- Maximal Inhibition, MI [3]: -1 ± 0.1 pM per 10^6 cells
- Initial Activity, IA (HeLa, 0 ng/mL pSG5-cDNAwtC99, eqn. 1, activity at zero DAPT): 32 ± 3 pM per 10^6 cells
- EC50 [3]: 89 ± 17 nM
- IC50 [3]: 407 ± 34 nM
- Activation Hill coef. [4]: 1.08 ± 0.2
- Inhibition Hill's coef [4]: 2.4 ± 0.3
- Maximal Activity, MA [4]: 172 ± 90 pM per 10^6 cells
- Maximal Inhibition, MI [4]: 0.33 ± 0.7 pM per 10^6 cells
- Initial Activity, IA (HeLa, 15 ng/mL pSG5-cDNAwtC99, eqn. 1, activity at zero DAPT): 41 ± 3 pM per 10^6 cells
- EC50 [4]: 71 ± 21 nM
- IC50 [4]: 588 ± 35 nM
- Activation Hill coef. [5]: 1.0 ± 0.1
- Inhibition Hill's coef [5]: 2.2 ± 0.4
- Maximal Activity, MA [5]: 205 ± 80 pM per 10^6 cells
- Maximal Inhibition, MI [5]: -0.2 ± 0.1 pM per 10^6 cells
- Initial Activity, IA (HeLa, 25 ng/mL pSG5-cDNAwtC99, eqn. 1, activity at zero DAPT): 51 ± 5 pM per 10^6 cells
- EC50 [5]: 110 ± 34 nM
- IC50 [5]: 524 ± 71 nM
- Activation Hill coef. [6]: 1.13 ± 0.6
- Inhibition Hill's coef [6]: 2.3 ± 0.5
- Maximal Activity, MA [6]: 180 ± 145 pM per 10^6 cells
- Maximal Inhibition, MI [6]: 1.2 ± 0.2 pM per 10^6 cells
- Initial Activity, IA (HeLa, 61 ng/mL pSG5-cDNAwtC99, eqn. 1, activity at zero DAPT): 91 ± 6 pM per 10^6 cells
- EC50 [6]: 107 ± 36 nM
- IC50 [6]: 489 ± 62 nM
- Activation Hill coef. [7]: 0.92 ± 0.3
- Inhibition Hill's coef [7]: 1.7 ± 0.6
- Maximal Activity, MA [7]: 170 ± 95 pM per 10^6 cells
